For the assay, the target named is T1, Vitamin D3 receptor A (Danio rerio) (UniProt Q9PTN2).
T1 sequence (whole entry): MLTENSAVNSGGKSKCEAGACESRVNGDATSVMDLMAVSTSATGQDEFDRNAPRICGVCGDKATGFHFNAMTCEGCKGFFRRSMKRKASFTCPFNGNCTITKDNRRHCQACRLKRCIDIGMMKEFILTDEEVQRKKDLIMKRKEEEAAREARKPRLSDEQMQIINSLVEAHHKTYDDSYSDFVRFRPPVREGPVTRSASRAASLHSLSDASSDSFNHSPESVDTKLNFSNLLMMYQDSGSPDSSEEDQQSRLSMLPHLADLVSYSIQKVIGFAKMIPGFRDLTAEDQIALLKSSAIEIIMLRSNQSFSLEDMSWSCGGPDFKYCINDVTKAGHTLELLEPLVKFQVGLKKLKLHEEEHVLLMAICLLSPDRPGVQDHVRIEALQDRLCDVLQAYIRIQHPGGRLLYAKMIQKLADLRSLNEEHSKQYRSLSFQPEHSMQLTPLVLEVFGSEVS
Put plainly: Binding affinity to N-terminal His-tagged zebrafish VDR LBD (154 to 456) at 10 to 20-fold molar excess by ESI-MS analysis.

The record followed here is ChEMBL document CHEMBL3286103.

Active and inactive are the calls of the source. The rule behind the calls is not given here.

With `C[C@H](CCC(=O)O)[C@H]1CC[C@H]2[C@@H]3CC[C@@H]4C[C@H](O)CC[C@]4(C)[C@H]3CC[C@]12C`, the result was Active.
